Laboratory results taken from US11986529B2, “Pharmaceutical compositions and related methods of delivery” (priority 2008, dated 2024).
Read-outs that look alike come from different tables or passages of the source.

Assays:
[1] = rat, in vivo
Method: (§1) Rats are allowed to recover for 4 days before the study and are deprived of food for 18 hours before the start of the study.
(§2) Levels of plasma dextran following administration of dextran in formulation or in saline were compared to the levels of plasma dextran after intravenous administration. Exposure values, AUC (0-90), were determined for jejunal and intravenous administration and the absolute bioavailability (aBA) was calculated according to the following equation: aBA=(jejunal AUC(0-90))/(iv AUC(0-90))*(iv dose/jejunal dose). Data are presented as Mean±SD (n≥5 rats per group).
(§3) The levels of dextran absorption from rat jejunum after administration of dextran in formulation were compared to the levels of dextran absorbed after intravenous administration. Exposure values, AUC (0-90), were determined for jejunal and intravenous administration and the absolute bioavailability (aBA) determined according to the following equation: aBA=(jejunal AUC(0-90))/(iv AUC(0-90))*(iv dose/jejunal dose). Data are presented as Mean±SD (n≥5 rats per group).
(§4) The levels of dextran absorption from rat jejunum after administration of dextran in formulation were compared to the levels of dextran absorbed after intravenous administration. Exposure values, AUC (0-90), were determined for jejunal and intravenous administration and the absolute Bioavailability (aBA) was determined according to the following equation: aBA=(jejunal AUC(0-90))/(iv AUC(0-90))*(iv dose/jejunal dose). Data are presented as Mean±SD (n≥5 rats per group).

[2] = rat, in vivo; remark: listed apart in the source
Method: Rats were anesthetized and were administered 100 μL of bulk drug formulation containing an insulin dose of 328 μg/rat (9 IU/rat). Blood samples were collected at 0, 3, 6, 10, 15, 25, 30, 40, 60 and 90 minutes post administration and serum was prepared for determination of human insulin by an immunoassay kit with no cross reactivity between rat and human insulin.
Rats were anesthetized and administered 100 μL of test article (insulin in formulation or insulin in PBS) containing an insulin dose of 328 μg/rat (9 IU/rat). Blood samples were collected at 0, 3, 6, 10, 15, 25, 30, 40, 60 and 90 minutes post administration. Glucose level was immediately determined with a glucometer and serum was prepared for determination of human insulin by an immunoassay kit with no cross reactivity between rat and human insulin.
Blood samples were collected at 0, 3, 6, 10, 15, 25, 30, 40, 60 and 90 minutes post rectal administration and at 0, 15, 30, 45, 60, 90 min, 2, 3, and 4 hours post SC administration. Glucose was immediately determined with a glucometer and insulin by an immunoassay kit. Glucose levels are presented as the percentage form basal levels measured before administration (time 0).
The levels of insulin absorption from rat colon after insulin in formulation administration were compared to the levels of insulin absorbed after SC administration. […]

[3] = rat, in vivo; remark: listed apart in the source
From the text: Enteric-coated capsules for rats are not available and therefore stomach bypass enabling direct intra-jejunal administration is needed.
A specialized rat model in which three different cannulas are surgically implanted in anesthetized rats was developed: 1. Jejunal cannula—stomach bypass, enables insulin formulation administration, 2. Portal vein cannula—blood sampling prior to the liver, determine insulin that cross the GI wall into the blood, and 3. Jugular vein cannula—to determine the systemic levels of insulin.
Rats (8 rats per group) were anesthetized and their jejunum exposed by abdominal surgery. The jejunum containing intestinal loop was placed on gauze and kept moist and fully intact throughout the entire study. A temporary cannula was inserted into the jejunum and formulated insulin was administered. Blood was collected from both portal and jugular veins at the same time points, with approximately 4 time points per rat. The MEAN±SD value of each time point was used to create a plasma concentration vs. time curve. AUC was determined and rBA was calculated.

[4] = test system: blood glucose; test: Blood glucose after rectal administration of insulin to rats; assay type: in vivo; conditions: rat, insulin 328 μg/rat
From the text: The data of FIG. 3 is presented as MEAN±SD, n=5.

[5] = Capsule administration to small intestine of non-anesthetized pigs (Nipple Valve gastric bypass); conditions: pig, in vivo; read-out: level of bioavailability in pigs, extrapolated from rat results
From the text: In order to test the activity of the formulations of the invention when administrated in capsules, an animal model allowing capsule administration to pigs (domestic swine) was established. In order to bypass the stomach and allow direct administration of capsules to the small intestine of the pig, a well established model in dogs (“Nipple Valve model”; Wilsson-Rahmberg & O. Jonsson, Laboratory Animals (1997), 31, 231-240) was adapted to the commercial pig.
The two octreotide formulations shown below in Table 37 were prepared. The octreotide (x) formulation was prepared essentially as described above for the basic formulation wherein the hydrophilic fraction has been simplified to omit MgCl2 and MC400. […] The capsules were not enteric-coated i.e. they were uncoated.
The formulations described above in Table 37 were administered directly to the small intestine of the non-anesthetized pigs via the gastric bypass described above, and plasma octreotide levels were measured post-administration. Exposure values, AUC were determined for the formulations. The % BA was calculated compared to the exposure to octreotide after subcutaneous administration.

[6] = Intra-jejunal administration to non-anesthetized cannulated rats: plasma cargo levels, AUC, bioavailability; conditions: rat
Method: as §1, §2, §3, §4

Molecule: CCNC(=O)[C@@H]1CCCN1C(=O)[C@H](CCCNC(=N)N)NC(=O)[C@H](CC(C)C)NC(=O)[C@@H](CC(C)C)NC(=O)[C@H](Cc1ccc(O)cc1)NC(=O)[C@H](CO)NC(=O)[C@H](Cc1c[nH]c2ccccc12)NC(=O)[C@H](Cc1c[nH]cn1)NC(=O)[C@@H]1CCC(=O)N1 [leuprolide in PBS, leuprolide]
- bioavailability / penetration to the bloodstream [1]: negligible penetration to the bloodstream

Molecule: hGH in PBS: human growth hormone in PBS, control
- penetration to the bloodstream [2]: no penetration to the bloodstream

Molecule: insulin control: unformulated insulin control given intra-jejunally
- insulin absorbance [3]: minimal insulin absorbance

Molecule: insulin in PBS: human insulin solubilized in PBS
- glucose reduction [4]: only a very slight glucose reduction

Molecule: C[C@@H](O)[C@@H]1NC(=O)[C@H](CCCCN)NC(=O)[C@@H](Cc2c[nH]c3ccccc23)NC(=O)[C@H](Cc2ccccc2)NC(=O)[C@@H](NC(=O)[C@H](N)Cc2ccccc2)CSSC[C@@H](C(=O)N[C@H](CO)[C@@H](C)O)NC1=O [octreotide]
- bioavailability [5]: ~0.1%

Molecule: CN[C@H](CC(C)C)C(=O)N[C@H]1C(=O)N[C@@H](CC(N)=O)C(=O)N[C@H]2C(=O)N[C@H]3C(=O)N[C@H](C(=O)N[C@H](C(=O)O)c4cc(O)cc(O)c4-c4cc3ccc4O)[C@H](O)c3ccc(c(Cl)c3)Oc3cc2cc(c3O[C@@H]2O[C@H](CO)[C@@H](O)[C@H](O)[C@H]2O[C@H]2C[C@](C)(N)[C@H](O)[C@H](C)O2)Oc2ccc(cc2Cl)[C@H]1O [vancomycin in saline solution, vancomycin]
- bioavailability / penetration to the bloodstream [6]: no BA was detected

Molecule: CC[C@H](C)[C@H](NC(=O)[C@H](CCC(=O)O)NC(=O)[C@H](CO)NC(=O)[C@@H](NC(=O)[C@@H](N)CO)C(C)C)C(=O)N[C@@H](CCC(N)=O)C(=O)N[C@@H](CC(C)C)C(=O)N[C@@H](CCSC)C(=O)N[C@@H](Cc1cnc[nH]1)C(=O)N[C@@H](CC(N)=O)C(=O)N[C@@H](CC(C)C)C(=O)NCC(=O)N[C@@H](CCCCN)C(=O)N[C@@H](Cc1cnc[nH]1)C(=O)N[C@@H](CC(C)C)C(=O)N[C@@H](CC(N)=O)C(=O)N[C@@H](CO)C(=O)N[C@@H](CCSC)C(=O)N[C@@H](CCC(=O)O)C(=O)N[C@@H](CCCN=C(N)N)C(=O)N[C@H](C(=O)N[C@@H](CCC(=O)O)C(=O)N[C@@H](Cc1c[nH]c2ccccc12)C(=O)N[C@@H](CC(C)C)C(=O)N[C@@H](CCCN=C(N)N)C(=O)N[C@@H](CCCCN)C(=O)N[C@@H](CCCCN)C(=O)N[C@@H](CC(C)C)C(=O)N[C@@H](CCC(N)=O)C(=O)N[C@@H](CC(=O)O)C(=O)N[C@H](C(=O)N[C@@H](Cc1cnc[nH]1)C(=O)N[C@@H](CC(N)=O)C(=O)N[C@@H](Cc1ccccc1)C(=O)O)C(C)C)C(C)C [teriparatide in saline, teriparatide]
- bioavailability / penetration to the bloodstream [1]: no penetration to the bloodstream
